{"source": "patent US11254987B2", "about": "“PD-L1 promoter methylation in cancer” (Genentech, Inc., priority 2015, dated 2022)", "type_in_all_cases": "cell-based, human", "key": {"[1]": {"test_system": "STAT1 near CpG1 in the PD-L1 promoter", "experiment": "ChIP-Seq: binding of STAT1 near CpG1 in the PD-L1 promoter", "details": "H358, methylation at PD-L1 promoter LOW; IFNγ stimulation", "method": "(§1) NSCLC cell lines were grown to the proper confluency, and treated cells were fixed with 1% formaldehyde for 15 min and quenched with 0.125 M glycine. Chromatin was isolated by the addition of lysis buffer and disruption with a Dounce homogenizer. Lysates were sonicated, and the DNA was sheared to an average length of 300-500 bp. Genomic DNA (Input) was prepared by treating aliquots of chromatin with RNase, proteinase K, and heat for de-crosslinking. Treatment was followed by ethanol precipitation. Pellets of genomic DNA were resuspended and the resulting DNA was quantified on a NanoDrop spectrophotometer. Extrapolation to the original chromatin volume allowed quantitation of the total chromatin yield.\n(§2) An aliquot of chromatin (30 μg) was pre-cleared with protein A agarose beads (Invitrogen). […]\n(§3) Illumina sequencing libraries were prepared from the ChIP and Input DNAs by the standard consecutive enzymatic steps of end-polishing, dA-addition, and adaptor ligation. After a final PCR amplification step, the resulting DNA libraries were quantified and sequenced on HiSeq 2500 or NexSeq 500. Sequences (50 nt reads, single end or 75 nt reads, single end) were aligned to the human genome (hg19) using the BWA algorithm. […] Peak locations were determined using the MACS algorithm (v1.4.2.) with a cutoff of pvalue=1×10^−7. […]"}, "[2]": {"test_system": "STAT3 near CpG1 in the PD-L1 promoter", "experiment": "ChIP-Seq: binding of STAT3 near CpG1 in the PD-L1 promoter", "details": "H358, methylation at PD-L1 promoter LOW; IFNγ stimulation", "method": "as §1, §2, §3"}, "STAT3": {"test_system": "STAT3", "experiment": "Western blot of IFNg/JAK/STAT signaling pathway: STAT3", "method": "Protein lysates were generated using Cell Extraction Buffer (Life Technologies), supplemented with SigmaFAST Protease Inhibitor Tablets (Sigma) and Phosphatase Inhibitor Cocktail 1 and 2 (Sigma). Lysates centrifuged at 20,000×g for 10 minutes at 4° C., and the supernatants were then removed for analysis by Western Blot (WB). Samples were treated with NuPage Novex LDS and SRA Buffers (Life Technologies) and loaded onto a Bis-Tris Gel (Life Technologies) alongside SeeBlue Plus2 molecular weight standard (Life Technologies). Gels were transferred to nitrocellulose membranes using the iBlot system (Life Technologies) and then blocked with Odyssey Blocking Buffer (LI-COR) for 1 hour at room temperature. Gels were stained with antibodies against human PD-L1 (in-house), β-actin (Sigma); p/t STAT1, p-STAT3-Y705, p-STAT3-5727, and t-STAT3 (all Cell Signaling) diluted in Odyssey Blocking Buffer+0.01% Tween-20. Primary antibodies were detected secondary antibodies from LI-COR in Odyssey Blocking Buffer+0.01% Tween-20+0.001% SDS and analyzed on the Odyssey CLx system (LI-COR).\nNext, western blots were performed to determine whether the IFNg/JAK/STAT signaling pathway plays a role in the IFNg-mediated induction of PD-L1 transcript and protein levels in A427, H322T, H292, and H358. Briefly, cells from A427, H322T, H292, and H358 were either (a) untreated; (b) treated with IFNg for 30 minutes; or (c) treated with IFNg for 24 hours. The cells were then processed into protein lysates and run out on gels, blotted and probed with the following antibodies: (1) anti-phospho-STAT1; (2) anti-total-STAT1: (3) anti-phospho-STAT3-Y705; (4) anti-phospho-STAT3-S727; (5) anti-total-STAT3; and (6) β-actin (loading control). […] STAT3 was further activated by the mTOR and MAPK pathways at S727.\nNext, the relationship between PD-L1 promoter methylation and the IFNg/JAK/STAT pathway was investigated in A427 and H358 using siRNA. […] In order to determine which STAT was most crucial for PD-L1 expression in the context of methylation, cells from each cell line were dosed with (1) no siRNA; (2) Scrambled control; (3) siSTAT1; (4) siSTAT3; (5) IFNg, or (6) siSTAT1, siSTAT3, and IFNg."}}, "data": [{"substance": "interferon gamma [IFNg, interferon gamma, used at 1 ng/mL to stimulate cells]", "values": [{"measurement": "Binding (chIP STAT1)", "setting": "[1]", "value": "bind and YES"}, {"measurement": "Binding (chIP STAT3)", "setting": "[2]", "value": "bound and YES"}, {"measurement": "induction of activated STAT3", "setting": "STAT3; A427 following stimulation with IFNg (FIG. 4C)", "value": "strong induction"}, {"measurement": "p-STAT3-Y705", "setting": "STAT3; H292, following 30 min IFNg treatment", "value": "constitutively activated"}, {"measurement": "p-STAT3-5727 activation", "setting": "STAT3; H358, before and after stimulation, early and late timepoints", "value": "did not show p-STAT3-5727 activation"}, {"measurement": "p-STAT3-Y705", "setting": "STAT3; H358, by 24 hrs following IFNg stimulation", "value": "lost"}, {"measurement": "Activation of the JAK/STAT signaling pathway", "setting": "STAT3; all cell lines except H358, by 24 hrs IFNg", "value": "observed"}]}]}
